Data as given in patent publication US20100119479A1, “THERAPEUTIC ANTIVIRAL PEPTIDES” (INTERMUNE, INC., priority 2008, published 2010).

Experiments:
[1] = molecular target: T1, full-length NS3/NS4A-2 (HCV NS3 protease) (Hepatitis C virus genotype 1b, UniProt Q9WMX2); assay: NS3 Inhibition Assay (NS3-NS4 protease assay, RETS1 substrate); type: biochemical; details: NS3/NS4A-2 protease
T1 construct: Recombinant E. coli or Baculovirus full-length NS3; host or cells: E. coli or baculovirus (BV) expression
Procedure: NS3 Complex Formation with NS4A-2.
Recombinant E. coli or Baculovirus full-length NS3 was diluted to 3.33 μM with assay buffer and transferred material to an eppendorf tube and placed in a water bath in a 4° C. refrigerator. The appropriate amount of NS4A-2 diluted to […] in assay buffer was added to equal the volume of NS3 above (conversion factor—3.8 mg/272 μL assay buffer). The material was transferred to an eppendorf tube and placed in water bath in a 4° C. refrigerator.
After equilibration to 4° C., equal volumes of NS3 and NS4A-2 solutions were combined in an eppendorf tube, mix gently with a manual pipettor, and incubate mixture for 15 minutes in the 4° C. water bath. Final concentrations in the mixture are 1.67 μM NS3, 4.15 mM NS4A-2 (2485-fold molar excess NS4A-2).
After 15 minutes at 4° C., the NS3/NS4A-2 eppendorf tube was removed and place it in a room temperature water bath for 10 minutes. NS3/NS4A-2 was aliquoted at appropriate volumes and store at −80° C. (E. coli NS3 run at 2 nM in assay, aliquot at 25 μL. BV NS3 run at 3 nM in assay, aliquot at 30 μL).
Step a. Sample compounds were dissolved to 10 mM in DMSO then diluted to 2.5 mM (1:4) in DMSO. Typically, compounds were added to an assay plate at 2.5 mM concentration, yielding upon dilution a starting concentration of 50 microM in the assay inhibition curve. Compounds were serial diluted in assay buffer to provide test solutions at lower concentrations.
Step b. The E. coli. NS3/NS4A-2 was diluted to 4 nM NS3 (1:417.5 of 1.67 μM stock−18 μL1.67 μM stock+7497 μL assay buffer). The BV NS3/NS4A-2 was diluted to 6 nM NS3 (1:278.3 of 1.67 μM stock−24 μL1.67 μM stock+6655 μL assay buffer).
Step c. Using the manual multichannel pipettor, and being careful not to introduce bubbles into the plate, 50 μL assay buffer were added to wells A01-H01 of a black Costar 96-well polypropylene storage plate.
Step d. Using the manual multichannel pipettor, and being careful not to introduce bubbles into the plate, 50 μL of diluted NS3/NS4A-2 from Step b were added to wells A02-H12 of the plate in Step c.
Step e. Using the manual multichannel pipettor, and being careful not to introduce bubbles into the plate, 25 μL of the wells in drug dilution plate in Step a were transferred to corresponding wells in assay plate in Step d. The tips on the multichannel pipettor were changed for each row of compounds transferred.
Step f Using the manual multichannel pipettor, and being careful not to introduce bubbles into the plate, the contentes of the wells from the assay plate in Step e were mixed by aspirating and dispensing 35 μL of the 75 μL in each well five times. The tips on multichannel pipettor were changed for each row of wells mixed.
Step g. The plate was covered with a polystyrene plate lid, and the plate from Step f containing NS3 protease and sample compounds was pre-incubated 10 minutes at room temperature.
While plate from Step g is pre-incubating, the RETS1 substrate was diluted in a 15 mL polypropylene centrifuge tube. The RETS1 substrate was diluted to 8 μM (1:80.75 of 646 μM stock—65 μL 646 μM stock+5184 μL assay buffer).
After the plate in Step g was done pre-incubating, and using the manual multichannel, 25 μL of substrate were added to all wells on the plate. The contents of the wells of the plate were quickly mixed, as in Step f, mixing 65 μL of the 100 μL in the wells.
The plate was read in kinetic mode on the Molecular Devices SpectraMax Gemini XS plate reader. Reader settings: Read time: 30 minutes, Interval: 36 seconds, Reads: 51, Excitation λ: 335 nm, Emission λ: 495 nm, cutoff: 475 nm, Automix: off, Calibrate: once, PMT: high, Reads/well: 6, Vmax pts: 21 or 28/51 depending on length of linearity of reaction
IC50s are determined using a four parameter curve fit equation, and converted to Ki's using the following Km's: […]
Full-length E. coli NS3−2.03 μM
Full-length BV NS3−1.74 μM
where Ki=IC50/(1+[S]/Km))

[2] = system: HCV sub-genomic replicon, GS4.3 (HuH-7 hepatoma cells); assay: Quantitation by ELISA of NPTII in the HCV sub-genomic replicon, GS4.3; type: cell-based; details: Hepatitis C virus, GS4.3 replicon cells, 72 h incubation
From the text: Quantitation by ELISA of the Selectable Marker Protein, Neomycin Phosphotransferase II (NPTII) in the HCV Sub-Genomic Replicon, GS4.3
The HCV sub-genomic replicon (1377/NS3-3′, accession No. AJ242652), stably maintained in HuH-7 hepatoma cells, was created by Lohmann et al. Science 285: 110-113 (1999). The replicon-containing cell culture, designated GS4.3, was obtained from Dr. Christoph Seeger of the Institute for Cancer Research, Fox Chase Cancer Center, Philadelphia, Pa.
GS4.3 cells were maintained at 37° C., 5% CO2, in DMEM (Gibco 11965-092) supplemented with L-glutamine 200 mM (100×) (Gibco25030-081), non-essential amino acids (NEAA)(Biowhittaker 13-114E), heat-inactivated (HI) Fetal Bovine Serum(FBS)(Hyclone SH3007.03) and 750 μg/mL geneticin (G418)(Gibco 10131-035). Cells were sub-divided 1:3 or 4 every 2-3 days.
24 h prior to the assay, GS4.3 cells were collected, counted, and plated in 96-well plates (Costar 3585) at 7500 cells/well in […] standard maintenance medium (above) and incubated in the conditions above. To initiate the assay, culture medium was removed, cells were washed once with PBS (Gibco 10010-023) and 90 μl Assay Medium (DMEM, L-glutamine, NEAA, 10% HI FBS, no G418) was added. Inhibitors were made as a 10× stock in Assay Medium, (3-fold dilutions from 10 μM to […] final concentration, final DMSO concentration 1%), […] were added to duplicate wells, plates were rocked to mix, and incubated as above for 72 h.
An NPTII Elisa kit was obtained from AGDIA, Inc. (Compound direct ELISA test system for Neomycin Phosphotransferase II, PSP 73000/4800). Manufacturer's instructions were followed, with some modifications. 10×PEB-1 lysis buffer was made up to include 500 μM PMSF (Sigma P7626, 50 mM stock in isopropanol). After 72 h incubation, cells were washed once with PBS and […] PEB-1 with PMSF was added per well. Plates were agitated vigorously for 15 minutes, room temperature, then frozen at −70° C. Plates were thawed, lysates were mixed thoroughly, and 100 μl were applied to an NPTII Elisa plate. A standard curve was made. Lysate from DMSO-treated control cells was pooled, serially diluted with PEB-1 with PMSF, and applied to duplicate wells of the ELISA plate, in a range of initial lysate amount of 150 μL-2.5 μL. In addition, 100 μL buffer alone was applied in duplicate as a blank. Plates were sealed and gently agitated at room temperature for 2 h. Following capture incubation, the plates were washed 5×300 μL with PBS-T (0.5% Tween-20, PBS-T was supplied in the ELISA kit). For detection, a 1× dilution of enzyme conjugate diluent MRS-2 (5×) was made in PBS-T, into which 1:100 dilutions of enzyme conjugates A and B were added, as per instructions. Plates were resealed, and incubated with agitation, covered, room temperature, for 2 h. The washing was then repeated and 100 μL, of room temperature TMB substrate was added. After approximately 30 minutes incubation (room temperature, agitation, covered), the reaction was stopped with 50 μL, 3M sulfuric acid. Plates were read at 450 nm on a Molecular Devices Versamax plate reader.
Inhibitor effect was expressed as a percentage of DMSO-treated control signal, and inhibition curves were calculated using a 4-parameter equation: y=A+((B−A)/(1+((C/x)̂D))), where C is half-maximal activity or EC50.

T1 sequence (Q9WMX2 1027-1657): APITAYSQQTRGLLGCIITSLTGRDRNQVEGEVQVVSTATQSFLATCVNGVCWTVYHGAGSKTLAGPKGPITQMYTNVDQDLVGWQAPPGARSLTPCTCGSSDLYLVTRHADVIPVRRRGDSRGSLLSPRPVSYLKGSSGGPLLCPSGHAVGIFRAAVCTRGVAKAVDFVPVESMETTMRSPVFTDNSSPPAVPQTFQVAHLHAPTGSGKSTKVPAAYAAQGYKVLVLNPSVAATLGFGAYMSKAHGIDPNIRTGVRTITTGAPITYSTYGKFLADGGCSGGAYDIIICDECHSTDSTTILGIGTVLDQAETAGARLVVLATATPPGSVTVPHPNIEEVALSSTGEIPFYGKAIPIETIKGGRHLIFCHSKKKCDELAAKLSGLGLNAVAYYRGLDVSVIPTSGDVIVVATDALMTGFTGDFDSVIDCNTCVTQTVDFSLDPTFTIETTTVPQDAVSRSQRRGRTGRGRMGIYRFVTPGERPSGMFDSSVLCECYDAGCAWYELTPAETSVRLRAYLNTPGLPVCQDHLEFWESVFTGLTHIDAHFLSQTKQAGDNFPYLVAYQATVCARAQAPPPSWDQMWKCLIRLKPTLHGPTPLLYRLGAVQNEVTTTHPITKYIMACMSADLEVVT
T1 sequence (Q9WMX2 1658-1711): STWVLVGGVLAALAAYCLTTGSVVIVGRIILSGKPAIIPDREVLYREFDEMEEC

Row | SMILES | IC50 [1] [nM] | EC50 [2] [nM]
1 | C=C[C@@H]1C[C@]1(NC(=O)[C@@H]1C[C@@H](OC(=O)N2Cc3cccc(F)c3C2)CN1C(=O)[C@@H](Nc1cc(F)cc(C(F)(F)F)c1)C(C)(C)C)C(=O)NS(=O)(=O)C1(C)CC1 [Compound 288] | < 100 | < 100
2 | CC[C@@H]1C[C@]1(NC(=O)[C@@H]1C[C@@H](OC(=O)N2Cc3cccc(F)c3C2)CN1C(=O)[C@@H](Nc1cccc(OC(F)(F)F)c1)C(C)(C)C)C(=O)NS(=O)(=O)C1(C)CC1 [Compound 289] | < 100 | < 100
3 | CC[C@@H]1C[C@]1(NC(=O)[C@@H]1C[C@@H](OC(=O)N2Cc3cccc(F)c3C2)CN1C(=O)[C@@H](Nc1cccc(C(F)(F)F)c1)C(C)(C)C)C(=O)NS(=O)(=O)C1(C)CC1 [Compound 290] | < 100 | < 100
4 | CC[C@@H]1C[C@]1(NC(=O)[C@@H]1C[C@@H](OC(=O)N2Cc3ccc(OC)cc3C2)CN1C(=O)[C@@H](Nc1cc(F)cc(C(F)(F)F)c1)C(C)(C)C)C(=O)NS(=O)(=O)C1(C)CC1 [Compound 291] | < 100 | < 100
5 | CC(C)(C)[C@H](Nc1cc(F)cc(C(F)(F)F)c1)C(=O)N1C[C@H](OC(=O)N2Cc3cccc(Cl)c3C2)C[C@H]1C(=O)N[C@]1(C(=O)NS(=O)(=O)C2CC2)C[C@H]1C1CC1 [Compound 292] | < 100 | < 100
6 | CC(C)(C)[C@H](Nc1cccc(C(F)(F)F)c1)C(=O)N1C[C@H](OC(=O)N2Cc3cccc(Cl)c3C2)C[C@H]1C(=O)N[C@]1(C(=O)NS(=O)(=O)C2CC2)C[C@H]1C1CC1 [Compound 293] | < 100 | < 100
7 | CC(C)(C)[C@H](Nc1ccc(F)c(C(F)(F)F)c1)C(=O)N1C[C@H](OC(=O)N2Cc3cccc(Cl)c3C2)C[C@H]1C(=O)N[C@]1(C(=O)NS(=O)(=O)C2CC2)C[C@H]1C1CC1 [Compound 294] | < 100 | < 100
8 | CC[C@@H]1C[C@]1(NC(=O)[C@@H]1C[C@@H](Oc2cc(-c3nc(C(C)C)cs3)nc3c(C)c(OC)ccc23)CN1C(=O)[C@@H](Nc1cccc(C(F)(F)F)c1)C(C)(C)C)C(=O)NS(=O)(=O)N(C)C [Compound 297] | < 100 | < 100
9 | CC(C)(C)[C@H](Nc1cc(F)cc(C(F)(F)F)c1)C(=O)N1C[C@H](OC(=O)N2Cc3cccc(Cl)c3C2)C[C@H]1C(=O)N[C@]1(C(=O)NS(=O)(=O)C2(C)CC2)C[C@H]1C1CC1 [Compound 298] | < 100 | < 100
10 | CC[C@@H]1C[C@]1(NC(=O)[C@@H]1C[C@@H](Oc2cc(-c3nc(C(C)C)cs3)nc3c(C)c(OC)ccc23)CN1C(=O)[C@@H](Nc1ccc(C(F)(F)F)cc1)C(C)(C)C)C(=O)NS(=O)(=O)C1(C)CC1 [Compound 299] | < 100 | < 100
11 | CC[C@@H]1C[C@]1(NC(=O)[C@@H]1C[C@@H](Oc2cc(-c3nc(C(C)C)cs3)nc3c(C)c(OC)ccc23)CN1C(=O)[C@@H](Nc1ccc(F)c(C(F)(F)F)c1)C(C)(C)C)C(=O)NS(=O)(=O)C1(C)CC1 [Compound 301] | < 100 | < 100
12 | C=C[C@@H]1C[C@]1(NC(=O)[C@@H]1C[C@@H](Oc2cc(-c3nc(C(C)C)cs3)nc3c(C)c(OC)ccc23)CN1C(=O)[C@@H](Nc1cccc(C(F)(F)F)c1)C(C)(C)C)C(=O)NS(=O)(=O)C1(C)CC1 [Compound 302] | < 100 | < 100
13 | CC(C)(C)[C@H](Nc1cccc(C(F)(F)F)c1)C(=O)N1C[C@H](OC(=O)N2Cc3cccc(Cl)c3C2)C[C@H]1C(=O)N[C@]1(C(=O)NS(=O)(=O)C2(C)CC2)C[C@H]1C1CC1 [Compound 303] | < 100 | < 100
14 | CC(C)(C)[C@H](Nc1cccc(OC(F)(F)F)c1)C(=O)N1C[C@H](OC(=O)N2Cc3cccc(Cl)c3C2)C[C@H]1C(=O)N[C@]1(C(=O)NS(=O)(=O)C2(C)CC2)C[C@H]1C1CC1 [Compound 304] | < 100 | < 100
15 | C=C[C@@H]1C[C@]1(NC(=O)[C@@H]1C[C@@H](Oc2cc(-c3nc(C(C)C)cs3)nc3c(C)c(OC)ccc23)CN1C(=O)[C@@H](Nc1ccc(F)c(C(F)(F)F)c1)C(C)(C)C)C(=O)NS(=O)(=O)C1(C)CC1 [Compound 305] | < 100 | < 100
16 | C=C[C@@H]1C[C@]1(NC(=O)[C@@H]1C[C@@H](Oc2cc(-c3nc(C(C)C)cs3)nc3c(C)c(OC)ccc23)CN1C(=O)[C@@H](Nc1ccc(F)c(C(F)(F)F)c1)C(C)(C)C)C(=O)NS(=O)(=O)C1CC1 [Compound 306] | < 100 | < 100
17 | C=C[C@@H]1C[C@]1(NC(=O)[C@@H]1C[C@@H](Oc2cc(-c3nc(C(C)C)cs3)nc3c(C)c(OC)ccc23)CN1C(=O)[C@@H](Nc1cc(F)cc(C(F)(F)F)c1)C(C)(C)C)C(=O)NS(=O)(=O)N(C)C [Compound 307] | < 100 | < 100
